{"source": "patent US20220218678A1", "about": "“USE OF 1-PHENYL-2-PYRIDINYL ALKYL ALCOHOL DERIVATIVES FOR TREATING CYSTIC FIBROSIS” (CHIESI FARMACEUTICI S.p.A., priority 2017, published 2022)", "key": {"ΔF508 CFTR": {"target": "T1, ΔF508 CFTR (Homo sapiens, UniProt P13569, DEL508-508)", "T1 construct": "cells expressing endogenous ΔF508-CFTR; endogenous in cells; host or cells: CFBE41o− human CF bronchial epithelial cell line (gift from D. C. Gruenert), homozygous ΔF508", "T1 sequence (P13569 with tags, fused parts or gaps DEL508-508)": "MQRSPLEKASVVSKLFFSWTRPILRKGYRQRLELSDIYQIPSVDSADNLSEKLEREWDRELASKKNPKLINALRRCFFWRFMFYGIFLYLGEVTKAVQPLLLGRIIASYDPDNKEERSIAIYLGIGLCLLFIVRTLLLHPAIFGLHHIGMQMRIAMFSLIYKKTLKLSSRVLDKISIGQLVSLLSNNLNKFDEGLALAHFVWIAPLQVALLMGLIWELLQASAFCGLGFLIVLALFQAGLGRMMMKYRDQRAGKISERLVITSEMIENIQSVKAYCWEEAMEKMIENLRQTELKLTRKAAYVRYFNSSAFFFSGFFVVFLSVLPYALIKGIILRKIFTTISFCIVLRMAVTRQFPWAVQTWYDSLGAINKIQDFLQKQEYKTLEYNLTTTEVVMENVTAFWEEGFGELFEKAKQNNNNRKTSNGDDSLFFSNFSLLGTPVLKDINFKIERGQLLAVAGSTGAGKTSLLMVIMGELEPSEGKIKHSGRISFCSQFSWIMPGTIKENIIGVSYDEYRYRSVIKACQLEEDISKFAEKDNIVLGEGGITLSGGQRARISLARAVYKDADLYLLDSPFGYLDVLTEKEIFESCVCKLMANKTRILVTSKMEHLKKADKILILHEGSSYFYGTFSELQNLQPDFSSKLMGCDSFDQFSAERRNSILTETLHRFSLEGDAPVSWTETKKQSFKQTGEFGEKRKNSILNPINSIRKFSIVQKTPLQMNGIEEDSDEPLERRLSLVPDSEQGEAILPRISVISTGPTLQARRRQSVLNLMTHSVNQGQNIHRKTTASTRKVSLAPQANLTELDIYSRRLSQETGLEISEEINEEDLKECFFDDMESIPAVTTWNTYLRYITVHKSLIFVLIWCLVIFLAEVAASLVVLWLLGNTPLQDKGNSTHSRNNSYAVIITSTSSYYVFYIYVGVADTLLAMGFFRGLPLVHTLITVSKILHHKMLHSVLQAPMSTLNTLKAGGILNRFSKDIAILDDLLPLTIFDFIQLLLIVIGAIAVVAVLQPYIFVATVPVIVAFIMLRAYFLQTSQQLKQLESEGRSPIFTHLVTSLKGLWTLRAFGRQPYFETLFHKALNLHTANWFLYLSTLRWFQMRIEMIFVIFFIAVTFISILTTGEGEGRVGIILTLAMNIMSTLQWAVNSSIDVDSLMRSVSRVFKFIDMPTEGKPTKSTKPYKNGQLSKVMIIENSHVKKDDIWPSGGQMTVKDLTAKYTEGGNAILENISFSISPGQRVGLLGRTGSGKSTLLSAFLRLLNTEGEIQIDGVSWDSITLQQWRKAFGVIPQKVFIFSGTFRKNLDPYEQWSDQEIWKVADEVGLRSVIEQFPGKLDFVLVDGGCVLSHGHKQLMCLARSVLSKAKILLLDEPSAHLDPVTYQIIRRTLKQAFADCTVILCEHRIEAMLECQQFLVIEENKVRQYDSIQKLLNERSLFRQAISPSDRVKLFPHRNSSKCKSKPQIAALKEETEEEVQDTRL", "assay": "HS-YFP assay, CFTR corrector activity in CFBE41o− cells", "assay_type": "cell-based", "details": "24 h exposure, VRT809 5 μM", "description": "The CF human bronchial epithelial cell line (CFBE41o−), homozygous for the ΔF508 mutation of the CFTR protein (Ehrhard et al., 2006, Cell Tissue Res. Vol. 323, p. 405-415; kind gift from D. C. Gruenert, California Pacific Medical Center Research Institute, San Francisco, Calif., USA) and the human bronchial epithelial cell line 16HBE14o−, wildtype (wt) for the CFTR protein (kindly provided by P. Davis, Case Western Reserve University School of Medicine, Cleveland, Ohio, USA) were maintained in EMEM (Lonza) supplemented with 10% FBS and 1% Glutamax (Sigma). […]\nThe CFTR activity in epithelial cells was evaluated by Yellow Fluorescence Protein (YFP) with a protocol modified from the method published by Averna et al. (PLoS One, 2013, vol. 8, e66089). […]\nThe potential corrector activity of roflumilast and a compound of general formula (I) (CHF6001) was evaluated in comparison with the known CFTR corrector VRT809 in the human bronchial epithelial cell line CFBE41o− (homozygous for the ΔF508 mutation of the CFTR protein) by the HS-YFP assay (FIG. 3). […]\nFIG. 3. CFTR corrector activity was evaluated in CFBE41o− epithelial cell line after 24 h exposure to CFTR corrector VRT809 (5 μM), CHF6001, and Roflumilast at the indicated doses.\nValues are normalized for total cell content and expressed as means±SEM (n=4) *p≤0.05 t-test (vs DMSO)"}, "CFTR": {"target": "T2, CFTR (Homo sapiens, UniProt P13569, DEL508-508)", "T2 construct": "cells expressing endogenous ΔF508-CFTR; endogenous in cells; host or cells: CFBE41o− human CF bronchial epithelial cell line (gift from D. C. Gruenert), homozygous ΔF508", "T2 sequence (P13569 with tags, fused parts or gaps DEL508-508)": "as above", "assay": "Flow cytometry, presence of CFTR epitopes on CFBE41o− cells", "assay_type": "cell-based", "details": "24 h of treatment, CHF6001 30 nM, Roflumilast 50 nM", "experimental": "CFBE41o− cells were seeded 1.5×10^5 cells/well into a 6 multi-well dish in EMEM medium, supplemented with 10% FBS and 1 mM L-glutamine, and maintained in incubator at 37° C. overnight. The day after, the cells were treated with different agents, as follows: VRT809 (5 μM), CHF6001 (30 nM), Roflumilast (50 nM) or the vehicle DMSO. After 24 h cells were harvested.\nSpecifically for detection of the extracellular domain of CFTR, the cells were washed with PBS 1× and successively stained with the anti-CFTR monoclonal antibody CF3 (Abeam), suitable for detection of the extracellular domain of CFTR. After washing, the secondary antibody goat anti-mouse (μ-chain) conjugated with Alexa Fluor-488 (Invitrogen, Carlsbad, U.S.A.) was added (1 μg for 10^6 cells) for 30 min on ice. […]\nFinally cells were washed twice and then analysed at MACSQuant Analyzer (Miltenyi Biotech, Cologne, Germany), and data were analysed with FlowJo Software (Tree Star, Inc).\nThe percentage of events with background noise (determined with IgM isotype or peptide signal) was subtracted and the result was expressed as %-values of CFTR positive cells. Geometrical means of the signal in the green channel were also obtained and a ratio between the signals obtained with the extracellular-domain specific antibody CF3 and with the polyclonal antibody (Alomone), respectively, with respect to the baseline signal was calculated (MFI). […]"}}, "data": [{"compound": "CS(=O)(=O)Nc1ccc(C(=O)OC(Cc2c(Cl)c[n+]([O-])cc2Cl)c2ccc(OC(F)F)c(OCC3CC3)c2)cc1OCC1CC1", "note": "(stereo not shown) [CHF6001, 3-Cyclopropylmethoxy-4-methanesulfonylamino-benzoic acid 1-(3-cyclopropylmethoxy-4-difluoromethoxy-phenyl)-2-(3,5-dichloro-1-oxy-pyridin-4-yl)-ethyl ester]", "values": [{"measurement": "CFTR activity (corrector activity) compared with VRT809", "setting": "ΔF508 CFTR", "result": "equal or superior to VRT809"}, {"measurement": "presence of CFTR epitopes (CF3 extracellular, Alomone intracellular)", "setting": "CFTR", "result": "restore the presence of CFTR epitopes"}]}, {"compound": "O=C(Nc1c(Cl)cncc1Cl)c1ccc(OC(F)F)c(OCC2CC2)c1", "note": "[Roflumilast, 3-cyclo-propylmethoxy-4-difluoromethoxy-N-[3,5-di-chloropyrid-4-yl]-benzamide]", "values": [{"measurement": "CFTR activity (corrector activity) compared with VRT809", "setting": "ΔF508 CFTR", "result": "equal or superior to VRT809"}, {"measurement": "presence of CFTR epitopes (CF3 extracellular, Alomone intracellular)", "setting": "CFTR", "result": "restore the presence of CFTR epitopes"}]}]}
